The values that follow come from US4914086A, “Method for treating African human and veterinary trypanosomiases” (priority 1987, dated 1990).

The subject of assay [1] is T. b. brucei TREU 667. The conditions noted are these: infection developed within 21 days; cited from earlier work.
Assay [2] has as its system T. b. brucei TREU 667. The assay is described as follows: CNS model, T. b. brucei TREU 667 infection in mice (Table 4). In kind it is in vivo, Trypanosoma brucei brucei (in Swiss-Webster mice). The settings on record: control: Berenil 40 mg/kg on day 21. The source says:
(§1) T. b. brucei EATRO 110 isolate was maintained as described (Bacchi, C. J., H. C. Nathan, S. H. Hutner, P. P. McCann and A. Sjoerdsma; Polyamine metabolism: a potential chemotherapeutic target in trypanosomes. Science 210: 332-334, 1980). It produces an acute, rapidly fatal parasitemia which is lethal to mice 3-5 days after inoculation. Two T. B. brucei strains, TREU 667 and LUMP 1001 developed by Jennings and coworkers (Jennings, F. W., D. D. Whitelaw and G. M. Urquhart; The relationship between duration of infection with Trypanosoma brucei in mice and the efficacy of chemotherapy. Parasitology 75: 143-153, 1977/Jennings, F. W. and G. D. Gray; Relapsed parasitemia following chemotherapy of chronic T. brucei infections in mice and its relation to cerebral trypanosomes; Contr. Microbiol. Immunol. 7 147-154, 1983) were used as CNS models. Both produce infections which are refractory to Berenil® (diminazene aceturate) and develop within 21 days after inoculation. They are not usually fatal until >40 days after inoculation. LUMP 1001 causes a more virulent CNS infection than TREU 667, and is regarded as more difficult to cure (Jennings, F. W. and G. D. Gray. Relapsed parasitemia following chemotherapy of chronic T. brucei infections in mice and its relation to cerebral trypanosomes. Contr. Microbiol. Immunol. 7 147-154, 1983).
The models for […] nervous system infections used TREU 667 and LUMP 1001 strains which were stored frozen and passaged once in rats before infection of mice. Maintenance and use of these screens were as described (Clarkson, A. B. Jr., C. J. Bacchi, G. H. Mellon, H. C. Nathan, P. P. McCann and A. Sjoerdsma. Efficacy of DFMO+blemoycin in a mouse model of central nervous system African trypanosomiasis. Proc. Natl. Acad. Sci. USA. 80: 5729-5733, 1983/Clarkson, A. B. Jr., E. J. Biene, C. J. Bacchi, P. P. McCann, S. H. Hutner and A. Sjoerdsma. New drug combination for experimental late stage African trypanosomiasis: DFMO with suramin. Am. J. Trop. Med. Hyg. 33: 1073-1077, 1984/Dube, D. K., G. Mpimbaza, A. C. Allison, E. Lederer and L. Rovis. Antitrypanosomal activity of sinefungin, Am. J. Trop. Med. Hyg. 32: 31-33, 1983/Fish, W. R., J. J. Marr, R. L. Berens, D. L. Looker, D. J. Nelson, S. LaFon and A. E. Balber. Inosine analogs as chemotherapeutic agents for African trypanosomes: metabolism in trypanosomes and efficacy in tissue culture. Anti-microb. Ag. Chemother. 27: 33-36, 1985/Clazer, R. I., and L. S. Lloyd. Effects of 8-azaadenosine and formycin on cell lethality and the synthesis and methylation of nucleic acids in human colon carcinoma cells in culture. Biochem. Pharmacol. 31: 3207-3214, 1982/Bacchi, C. J., H. C. Nathan, A. B. Clarkson, Jr., E. J. Bienen, A. J. Bitonti, P. P. McCann and A. Sjoerdsma. Activity of the ornithine decarboxylase inhibitors DL-α-difluoromethylornithine and monofluormethyldehydroornithine methylester alone and in combination with suramin against Trypanosoma brucei brucei central nervous system models, Am. J. Trop. Med. Hyg. (in press)). Briefly, groups of 100-120 mice were infected and the infections allowed to develop until day 21, when the animals were separated into groups of 10 and therapy commenced. Controls were treated with Berenil (40 mg/kg) on day 21. These always relapsed 40-70 days after treatment. Parasitemia was followed by examining tail vein blood smears once weekly. Animals which had relapsed were removed from cages. TREU 667 infections were followed >225 days after inoculation and LUMP 1001 were followed >280 days, as determined by the relapse pattern in previous work (Bacchi, C. J., H. C. Nathan, A. B. Clarkson, Jr., E. J. Bienen, A. J. Bitonti, P. P. McCann and A. Sjoerdsma. Activity of the ornithine decarboxylase inhibitors DL-α-difluoromethylornithine and monofluormethyldehydroornithine methylester alone and in combination with suramin against Trypanosoma brucei brucei central nervous system models. Am. J. Trop. Med. Hyg. (in press)). […]

For assay [3], the system named is T. b. brucei LUMP 1001. Description: CNS model, T. b. brucei LUMP 1001 infection in mice (Table 5). The settings on record: control: Berenil 40 mg/kg on day 21. Type of assay: in vivo, Trypanosoma brucei brucei (in Swiss-Webster mice).
Excerpt: as §1
The models for […] nervous system infections used TREU 667 and LUMP 1001 strains which were stored frozen and passaged once in rats before infection of mice. Maintenance and use of these screens were as described (Clarkson, A. B. Jr., C. J. Bacchi, G. H. Mellon, H. C. Nathan, P. P. McCann and A. Sjoerdsma. Efficacy of DFMO+blemoycin in a mouse model of central nervous system African trypanosomiasis. Proc. Natl. Acad. Sci. USA. 80: 5729-5733, 1983/Clarkson, A. B. Jr., E. J. Biene, C. J. Bacchi, P. P. McCann, S. H. Hutner and A. Sjoerdsma. New drug combination for experimental late stage African trypanosomiasis: DFMO with suramin. Am. J. Trop. Med. Hyg. 33: 1073-1077, 1984/Dube, D. K., G. Mpimbaza, A. C. Allison, E. Lederer and L. Rovis. Antitrypanosomal activity of sinefungin, Am. J. Trop. Med. Hyg. 32: 31-33, 1983/Fish, W. R., J. J. Marr, R. L. Berens, D. L. Looker, D. J. Nelson, S. LaFon and A. E. Balber. Inosine analogs as chemotherapeutic agents for African trypanosomes: metabolism in trypanosomes and efficacy in tissue culture. Anti-microb. Ag. Chemother. 27: 33-36, 1985/Clazer, R. I., and L. S. Lloyd. Effects of 8-azaadenosine and formycin on cell lethality and the synthesis and methylation of nucleic acids in human colon carcinoma cells in culture. Biochem. Pharmacol. 31: 3207-3214, 1982/Bacchi, C. J., H. C. Nathan, A. B. Clarkson, Jr., E. J. Bienen, A. J. Bitonti, P. P. McCann and A. Sjoerdsma. Activity of the ornithine decarboxylase inhibitors DL-α-difluoromethylornithine and monofluormethyldehydroornithine methylester alone and in combination with suramin against Trypanosoma brucei brucei central nervous system models, Am. J. Trop. Med. Hyg. (in press)). Briefly, groups of 100-120 mice were infected and the infections allowed to develop until day 21, when the animals were separated into groups of 10 and therapy commenced. Controls were treated with Berenil (40 mg/kg) on day 21. […] Parasitemia was followed by examining tail vein blood smears once weekly. Animals which had relapsed were removed from cages.

Assay [4] deals with T. b. brucei LUMP 1001. The conditions noted are these: infection developed within 21 days; cited from earlier work.

In the case of `N=C(N)c1ccc(N=NNc2ccc(C(=N)N)cc2)cc1` [Berenil, diminazene aceturate, reference compound], the “response of infection in words” value in the assay with T. b. brucei TREU 667 [1] and in the assay on T. b. brucei LUMP 1001 [4] was “refractory” throughout. The relapse after treatment with T. b. brucei TREU 667 [2] and in the assay on T. b. brucei LUMP 1001 [3] was 40 to 70 days in each case.
